# Several values for one entry are separate records, joined by “and”; a condition that tells them apart may be missing. Identical values can stand only once.
# Columns and labels:
# GRK5 = biological target: T1, GRK5 (Homo sapiens, UniProt P34947); assay: HotSpot kinase assay; format: biochemical; details: read-out: % Enzyme Activity (relative to DMSO controls)
# T1 construct: purchased Reaction Biology Corporation
# MRCKb/CDC42BPB = biological target: T2, MRCKb/CDC42BPB (Homo sapiens, UniProt Q9Y5S2); assay: HotSpot kinase assay; format: biochemical; details: read-out: % Enzyme Activity (relative to DMSO controls)
# T2 construct: purchased Reaction Biology Corporation
# MKK6 = biological target: T3, MKK6 (Homo sapiens, UniProt P52564); assay: HotSpot kinase assay; format: biochemical; details: read-out: % Enzyme Activity (relative to DMSO controls)
# T3 construct: purchased Reaction Biology Corporation
# RSK3 = biological target: T4, RSK3 (Homo sapiens, UniProt Q15349); assay: HotSpot kinase assay; format: biochemical; details: read-out: % Enzyme Activity (relative to DMSO controls)
# T4 construct: purchased Reaction Biology Corporation
# BMPR2 = biological target: T5, BMPR2 (Homo sapiens, UniProt Q13873); assay: HotSpot kinase assay; format: biochemical; details: read-out: % Enzyme Activity (relative to DMSO controls)
# T5 construct: purchased Reaction Biology Corporation
# DNA-PK = biological target: T6, DNA-PK (Homo sapiens, UniProt P78527); assay: HotSpot kinase assay; format: biochemical; details: read-out: % Enzyme Activity (relative to DMSO controls)
# T6 construct: purchased Reaction Biology Corporation
# STK38L/NDR2 = biological target: T7, STK38L/NDR2 (Homo sapiens, UniProt Q9Y2H1); assay: HotSpot kinase assay; format: biochemical; details: read-out: % Enzyme Activity (relative to DMSO controls)
# T7 construct: purchased Reaction Biology Corporation
# PKCzeta = biological target: T8, PKCzeta (Homo sapiens, UniProt Q05513); assay: HotSpot kinase assay; format: biochemical; details: read-out: % Enzyme Activity (relative to DMSO controls)
# T8 construct: purchased Reaction Biology Corporation
# DYRK3 = biological target: T9, DYRK3 (Homo sapiens, UniProt O43781); assay: HotSpot kinase assay; format: biochemical; details: read-out: % Enzyme Activity (relative to DMSO controls)
# T9 construct: purchased Reaction Biology Corporation
# MLK1/MAP3K9 = biological target: T10, MLK1/MAP3K9 (Homo sapiens, UniProt P80192); assay: HotSpot kinase assay; format: biochemical; details: read-out: % Enzyme Activity (relative to DMSO controls)
# T10 construct: purchased Reaction Biology Corporation
# MLK4 = biological target: T11, MLK4 (Homo sapiens, UniProt Q5TCX8); assay: HotSpot kinase assay; format: biochemical; details: read-out: % Enzyme Activity (relative to DMSO controls)
# T11 construct: purchased Reaction Biology Corporation
# ALK4/ACVR1B = biological target: T12, ALK4/ACVR1B (Homo sapiens, UniProt P36896); assay: HotSpot kinase assay; format: biochemical; details: read-out: % Enzyme Activity (relative to DMSO controls)
# T12 construct: purchased Reaction Biology Corporation
# FGFR1 = biological target: T13, FGFR1 (Homo sapiens, UniProt P11362); assay: HotSpot kinase assay; format: biochemical; details: read-out: % Enzyme Activity (relative to DMSO controls)
# T13 construct: purchased Reaction Biology Corporation
# T13 sequence (P11362 22-822): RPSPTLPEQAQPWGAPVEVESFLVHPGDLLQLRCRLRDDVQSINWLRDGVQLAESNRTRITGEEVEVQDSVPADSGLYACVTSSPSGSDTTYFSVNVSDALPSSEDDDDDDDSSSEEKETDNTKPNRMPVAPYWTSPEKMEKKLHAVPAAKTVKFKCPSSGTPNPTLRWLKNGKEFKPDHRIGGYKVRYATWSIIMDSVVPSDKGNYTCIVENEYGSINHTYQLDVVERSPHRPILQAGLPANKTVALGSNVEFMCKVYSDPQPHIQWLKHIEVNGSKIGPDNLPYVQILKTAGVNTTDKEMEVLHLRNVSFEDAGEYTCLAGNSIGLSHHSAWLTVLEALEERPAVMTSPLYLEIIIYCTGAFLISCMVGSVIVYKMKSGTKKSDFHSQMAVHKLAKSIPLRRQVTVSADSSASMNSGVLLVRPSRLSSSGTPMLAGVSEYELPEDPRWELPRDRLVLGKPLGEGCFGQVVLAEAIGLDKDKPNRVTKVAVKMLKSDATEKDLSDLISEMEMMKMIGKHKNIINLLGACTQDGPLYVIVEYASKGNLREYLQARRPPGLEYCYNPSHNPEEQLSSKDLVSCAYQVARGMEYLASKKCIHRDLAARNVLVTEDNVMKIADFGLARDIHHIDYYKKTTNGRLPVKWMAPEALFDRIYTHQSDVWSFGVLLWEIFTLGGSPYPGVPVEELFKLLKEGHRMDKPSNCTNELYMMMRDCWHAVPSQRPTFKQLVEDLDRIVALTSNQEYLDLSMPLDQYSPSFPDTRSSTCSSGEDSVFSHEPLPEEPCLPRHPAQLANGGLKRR
# DYRK1/DYRK1A = biological target: T14, DYRK1/DYRK1A (Homo sapiens, UniProt Q13627); assay: HotSpot kinase assay; format: biochemical; details: read-out: % Enzyme Activity (relative to DMSO controls)
# T14 construct: purchased Reaction Biology Corporation
# c-MET = biological target: T15, c-MET (Homo sapiens, UniProt P08581); assay: biochemical; details: read-out: % Enzyme Activity (relative to DMSO controls)
# T15 construct: purchased Reaction Biology Corporation
# FGFR3 = biological target: T16, FGFR3 (Homo sapiens, UniProt P22607); assay: HotSpot kinase assay; format: biochemical; details: read-out: % Enzyme Activity (relative to DMSO controls)
# T16 construct: purchased Reaction Biology Corporation
# SNRK = biological target: T17, SNRK (Homo sapiens, UniProt Q9NRH2); assay: HotSpot kinase assay; format: biochemical; details: read-out: % Enzyme Activity (relative to DMSO controls)
# T17 construct: purchased Reaction Biology Corporation
# T17 sequence (Q9NRH2 whole entry): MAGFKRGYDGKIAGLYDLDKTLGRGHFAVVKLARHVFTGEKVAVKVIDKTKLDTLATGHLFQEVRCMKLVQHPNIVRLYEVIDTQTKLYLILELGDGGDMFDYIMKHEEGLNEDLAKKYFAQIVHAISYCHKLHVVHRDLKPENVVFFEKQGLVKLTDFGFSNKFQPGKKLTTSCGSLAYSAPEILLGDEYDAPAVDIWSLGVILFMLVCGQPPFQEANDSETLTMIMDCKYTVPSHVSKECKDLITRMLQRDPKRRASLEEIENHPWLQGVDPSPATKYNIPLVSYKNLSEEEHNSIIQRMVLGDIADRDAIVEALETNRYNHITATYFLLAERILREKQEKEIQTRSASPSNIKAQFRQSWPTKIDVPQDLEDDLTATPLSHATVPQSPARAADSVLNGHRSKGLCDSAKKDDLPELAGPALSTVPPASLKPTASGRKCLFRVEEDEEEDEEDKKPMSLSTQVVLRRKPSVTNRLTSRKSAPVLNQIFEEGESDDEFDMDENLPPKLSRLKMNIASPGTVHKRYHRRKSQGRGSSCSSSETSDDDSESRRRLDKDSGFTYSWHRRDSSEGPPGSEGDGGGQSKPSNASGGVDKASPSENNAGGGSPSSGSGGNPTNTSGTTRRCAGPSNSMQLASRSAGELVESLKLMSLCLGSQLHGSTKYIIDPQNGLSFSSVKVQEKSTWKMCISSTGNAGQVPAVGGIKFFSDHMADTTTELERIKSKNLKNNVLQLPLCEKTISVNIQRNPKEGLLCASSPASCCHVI
# PKCmu/PRKD1 = biological target: T18, PKCmu/PRKD1 (Homo sapiens, UniProt Q15139); assay: HotSpot kinase assay; format: biochemical; details: read-out: % Enzyme Activity (relative to DMSO controls)
# T18 construct: purchased Reaction Biology Corporation
# BRSK2 = biological target: T19, BRSK2 (Homo sapiens, UniProt Q8IWQ3); assay: HotSpot kinase assay; format: biochemical; details: read-out: % Enzyme Activity (relative to DMSO controls)
# T19 construct: purchased Reaction Biology Corporation
# T19 sequence (Q8IWQ3 whole entry): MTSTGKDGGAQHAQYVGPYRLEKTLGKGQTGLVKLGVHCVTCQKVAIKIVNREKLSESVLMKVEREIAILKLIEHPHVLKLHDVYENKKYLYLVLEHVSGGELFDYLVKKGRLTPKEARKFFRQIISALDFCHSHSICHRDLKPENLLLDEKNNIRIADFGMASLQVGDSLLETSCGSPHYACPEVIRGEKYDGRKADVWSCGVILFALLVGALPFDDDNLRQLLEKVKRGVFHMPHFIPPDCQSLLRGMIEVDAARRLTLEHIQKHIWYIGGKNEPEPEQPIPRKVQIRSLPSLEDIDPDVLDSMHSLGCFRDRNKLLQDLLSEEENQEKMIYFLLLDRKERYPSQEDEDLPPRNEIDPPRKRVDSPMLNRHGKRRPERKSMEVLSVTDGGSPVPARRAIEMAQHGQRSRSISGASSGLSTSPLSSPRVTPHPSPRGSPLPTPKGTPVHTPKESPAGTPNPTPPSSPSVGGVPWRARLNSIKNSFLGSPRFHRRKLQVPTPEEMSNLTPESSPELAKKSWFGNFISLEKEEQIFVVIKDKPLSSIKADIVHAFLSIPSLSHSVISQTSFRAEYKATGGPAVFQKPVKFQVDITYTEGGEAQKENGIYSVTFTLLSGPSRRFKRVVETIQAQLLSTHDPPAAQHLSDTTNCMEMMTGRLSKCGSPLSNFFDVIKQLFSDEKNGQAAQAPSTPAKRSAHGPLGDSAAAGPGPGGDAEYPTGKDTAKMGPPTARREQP
# TAK1 = biological target: T20, TAK1 (Homo sapiens, UniProt O43318); assay: HotSpot kinase assay; format: biochemical; details: read-out: % Enzyme Activity (relative to DMSO controls)
# T20 construct: purchased Reaction Biology Corporation
# [1] = viability of confluent cells; format: cell-based, human; details: human, HaCat cells at 90–100% confluence, 120 h, replicates (Fig 1c source data), read-out: viability, odu as a percentage of the DMSO control
# HaCat cells = assay: viability of confluent cells; format: cell-based, human; details: 10 μM; for viability, odu as a percentage of the DMSO control: replicates (Fig 1c source data)
# CDK16/cyclin Y (PCTAIRE) = biological target: T21, CDK16/cyclin Y (PCTAIRE) (Homo sapiens, UniProt Q00536); assay: HotSpot kinase assay; format: biochemical; details: read-out: % Enzyme Activity (relative to DMSO controls)
# T21 construct: purchased Reaction Biology Corporation
# RET = biological target: T22, RET (Homo sapiens, UniProt P07949); assay: HotSpot kinase assay; format: biochemical; details: read-out: % Enzyme Activity (relative to DMSO controls)
# T22 construct: purchased Reaction Biology Corporation
# EPHB1 = biological target: T23, EPHB1 (Homo sapiens, UniProt P54762); assay: HotSpot kinase assay; format: biochemical; details: read-out: % Enzyme Activity (relative to DMSO controls)
# T23 construct: purchased Reaction Biology Corporation
# CAMK2a = biological target: T24, CAMK2a (Homo sapiens, UniProt Q9UQM7); assay: HotSpot kinase assay; format: biochemical; details: read-out: % Enzyme Activity (relative to DMSO controls)
# T24 construct: purchased Reaction Biology Corporation
# CDK4/cyclin D1 = biological target: T25, CDK4/cyclin D1 (Homo sapiens, UniProt P11802); assay: HotSpot kinase assay; format: biochemical; details: read-out: % Enzyme Activity (relative to DMSO controls)
# T25 construct: purchased Reaction Biology Corporation
# T25 sequence (P11802 whole entry): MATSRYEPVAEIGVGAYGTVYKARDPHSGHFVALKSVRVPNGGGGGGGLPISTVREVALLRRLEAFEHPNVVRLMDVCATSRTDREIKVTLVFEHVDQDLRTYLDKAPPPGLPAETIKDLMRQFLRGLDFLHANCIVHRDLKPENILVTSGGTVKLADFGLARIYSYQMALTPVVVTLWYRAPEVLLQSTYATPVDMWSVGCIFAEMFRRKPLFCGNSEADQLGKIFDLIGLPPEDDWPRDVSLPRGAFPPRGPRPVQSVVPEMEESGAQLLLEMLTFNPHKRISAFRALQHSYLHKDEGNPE
# T25 sequence (P24385 whole entry partner): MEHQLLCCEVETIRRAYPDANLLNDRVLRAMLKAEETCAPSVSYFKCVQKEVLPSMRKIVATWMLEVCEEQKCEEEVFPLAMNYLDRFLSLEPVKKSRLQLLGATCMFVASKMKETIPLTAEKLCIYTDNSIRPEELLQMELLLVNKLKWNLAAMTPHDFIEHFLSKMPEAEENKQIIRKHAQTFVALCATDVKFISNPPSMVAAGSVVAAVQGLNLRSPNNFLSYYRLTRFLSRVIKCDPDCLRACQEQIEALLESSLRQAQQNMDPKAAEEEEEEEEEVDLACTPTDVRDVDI
# MSK1/RPS6KA5 = biological target: T26, MSK1/RPS6KA5 (Homo sapiens, UniProt O75582); assay: HotSpot kinase assay; format: biochemical; details: read-out: % Enzyme Activity (relative to DMSO controls)
# T26 construct: purchased Reaction Biology Corporation
# EPHB4 = biological target: T27, EPHB4 (Homo sapiens, UniProt P54760); assay: HotSpot kinase assay; format: biochemical; details: read-out: % Enzyme Activity (relative to DMSO controls)
# T27 construct: purchased Reaction Biology Corporation
# SNARK/NUAK2 = biological target: T28, SNARK/NUAK2 (Homo sapiens, UniProt Q9H093); assay: HotSpot kinase assay; format: biochemical; details: read-out: % Enzyme Activity (relative to DMSO controls)
# T28 construct: purchased Reaction Biology Corporation
# MST2/STK3 = biological target: T29, MST2/STK3 (Homo sapiens, UniProt Q13188); assay: HotSpot kinase assay; format: biochemical; details: read-out: % Enzyme Activity (relative to DMSO controls)
# T29 construct: purchased Reaction Biology Corporation
# FLT3 = biological target: T30, FLT3 (Homo sapiens, UniProt P36888); assay: HotSpot kinase assay; format: biochemical; details: read-out: % Enzyme Activity (relative to DMSO controls)
# T30 construct: purchased Reaction Biology Corporation
# T30 sequence (P36888 27-993): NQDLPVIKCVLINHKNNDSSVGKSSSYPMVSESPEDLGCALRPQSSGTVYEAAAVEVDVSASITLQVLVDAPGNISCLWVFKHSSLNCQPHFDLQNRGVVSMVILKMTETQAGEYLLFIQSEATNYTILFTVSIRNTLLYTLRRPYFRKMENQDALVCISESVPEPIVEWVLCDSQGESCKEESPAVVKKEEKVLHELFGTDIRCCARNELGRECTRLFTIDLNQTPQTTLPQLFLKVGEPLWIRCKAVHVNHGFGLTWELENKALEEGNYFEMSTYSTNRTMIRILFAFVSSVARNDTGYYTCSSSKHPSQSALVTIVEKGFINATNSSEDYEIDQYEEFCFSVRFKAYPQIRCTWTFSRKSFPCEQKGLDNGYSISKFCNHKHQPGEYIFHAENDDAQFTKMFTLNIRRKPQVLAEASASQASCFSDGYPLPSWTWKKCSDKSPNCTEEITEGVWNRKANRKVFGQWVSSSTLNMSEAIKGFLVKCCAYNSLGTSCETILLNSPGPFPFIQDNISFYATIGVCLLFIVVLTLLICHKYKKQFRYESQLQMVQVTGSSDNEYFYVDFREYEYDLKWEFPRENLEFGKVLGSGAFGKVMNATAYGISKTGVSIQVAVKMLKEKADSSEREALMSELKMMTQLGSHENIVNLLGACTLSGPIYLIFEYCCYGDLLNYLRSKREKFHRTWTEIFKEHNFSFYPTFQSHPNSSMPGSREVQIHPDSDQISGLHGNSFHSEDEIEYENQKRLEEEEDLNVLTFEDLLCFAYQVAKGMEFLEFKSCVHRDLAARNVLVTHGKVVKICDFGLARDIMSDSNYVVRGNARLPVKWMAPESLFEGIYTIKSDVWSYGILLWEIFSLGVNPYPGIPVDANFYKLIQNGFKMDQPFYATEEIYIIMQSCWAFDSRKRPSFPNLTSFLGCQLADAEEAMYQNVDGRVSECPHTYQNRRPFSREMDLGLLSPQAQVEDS
# STK38/NDR1 = biological target: T31, STK38/NDR1 (Homo sapiens, UniProt Q15208); assay: HotSpot kinase assay; format: biochemical; details: read-out: % Enzyme Activity (relative to DMSO controls)
# T31 construct: purchased Reaction Biology Corporation
# FLT1/VEGFR1 = biological target: T32, FLT1/VEGFR1 (Homo sapiens, UniProt P17948); assay: HotSpot kinase assay; format: biochemical; details: read-out: % Enzyme Activity (relative to DMSO controls)
# T32 construct: purchased Reaction Biology Corporation
# PKAcg = biological target: T33, PKAcg (Homo sapiens, UniProt P22612); assay: HotSpot kinase assay; format: biochemical; details: read-out: % Enzyme Activity (relative to DMSO controls)
# T33 construct: purchased Reaction Biology Corporation
# PAK6 = biological target: T34, PAK6 (Homo sapiens, UniProt Q9NQU5); assay: HotSpot kinase assay; format: biochemical; details: read-out: % Enzyme Activity (relative to DMSO controls)
# T34 construct: purchased Reaction Biology Corporation
# TYK2 = biological target: T35, TYK2 (Homo sapiens, UniProt P29597); assay: HotSpot kinase assay; format: biochemical; details: read-out: % Enzyme Activity (relative to DMSO controls)
# T35 construct: purchased Reaction Biology Corporation
# LCK = biological target: T36, LCK (Homo sapiens, UniProt P06239); assay: HotSpot kinase assay; format: biochemical; details: read-out: % Enzyme Activity (relative to DMSO controls)
# T36 construct: purchased Reaction Biology Corporation
# MSSK1/STK23 = biological target: T37, MSSK1/STK23 (Homo sapiens, UniProt Q9UPE1); assay: HotSpot kinase assay; format: biochemical; details: read-out: % Enzyme Activity (relative to DMSO controls)
# T37 construct: purchased Reaction Biology Corporation
# T37 sequence (Q9UPE1 whole entry): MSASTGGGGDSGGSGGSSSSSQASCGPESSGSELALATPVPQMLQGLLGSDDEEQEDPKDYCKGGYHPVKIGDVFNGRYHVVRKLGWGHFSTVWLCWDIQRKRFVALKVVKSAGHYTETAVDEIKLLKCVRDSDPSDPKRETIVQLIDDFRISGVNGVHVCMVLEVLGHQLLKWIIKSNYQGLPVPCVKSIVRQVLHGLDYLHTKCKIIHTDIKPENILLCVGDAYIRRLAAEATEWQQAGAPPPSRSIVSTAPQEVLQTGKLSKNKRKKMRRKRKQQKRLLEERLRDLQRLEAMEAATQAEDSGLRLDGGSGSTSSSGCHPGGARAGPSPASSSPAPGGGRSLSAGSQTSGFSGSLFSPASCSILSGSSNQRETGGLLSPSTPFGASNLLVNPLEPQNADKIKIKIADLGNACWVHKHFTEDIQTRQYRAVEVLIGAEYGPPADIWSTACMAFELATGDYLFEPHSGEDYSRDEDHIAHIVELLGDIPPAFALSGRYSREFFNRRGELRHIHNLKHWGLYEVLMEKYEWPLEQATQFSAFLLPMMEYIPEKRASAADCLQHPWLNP
# T1 sequence (P34947 whole entry): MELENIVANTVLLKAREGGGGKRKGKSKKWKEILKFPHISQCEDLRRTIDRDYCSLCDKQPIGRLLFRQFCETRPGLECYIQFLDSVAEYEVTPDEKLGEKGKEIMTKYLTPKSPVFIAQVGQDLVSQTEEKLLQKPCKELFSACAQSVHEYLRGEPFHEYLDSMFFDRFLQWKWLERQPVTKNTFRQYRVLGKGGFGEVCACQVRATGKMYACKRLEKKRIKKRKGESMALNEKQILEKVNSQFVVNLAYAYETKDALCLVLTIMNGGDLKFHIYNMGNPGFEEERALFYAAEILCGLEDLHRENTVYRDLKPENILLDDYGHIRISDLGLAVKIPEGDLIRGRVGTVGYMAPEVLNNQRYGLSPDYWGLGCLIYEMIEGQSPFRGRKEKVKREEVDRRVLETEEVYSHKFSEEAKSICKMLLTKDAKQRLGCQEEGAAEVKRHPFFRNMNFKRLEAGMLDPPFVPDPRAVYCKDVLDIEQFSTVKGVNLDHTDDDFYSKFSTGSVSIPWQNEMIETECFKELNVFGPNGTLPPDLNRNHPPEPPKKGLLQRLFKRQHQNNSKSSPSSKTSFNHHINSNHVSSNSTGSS
smiles,measurement,setting,value
CO[C@@H]1[C@H](N(C)C(=O)CCC(=O)NCc2cn(CCCS(=O)(=O)O)nn2)C[C@H]2O[C@]1(C)n1c3ccccc3c3c4c(c5c6ccccc6n2c5c31)C(=O)NC4 [CIMSS],remaining activity at 10 µM,GRK5,7.35%
same,remaining activity at 10 µM,MRCKb/CDC42BPB,75.8%
same,remaining activity at 10 µM,MKK6,59.7%
same,remaining activity at 10 µM,RSK3,3.38%
same,remaining activity at 10 µM,BMPR2,50.4%
same,remaining activity at 10 µM,DNA-PK,98.2%
same,remaining activity at 10 µM,STK38L/NDR2,22.7%
same,remaining activity at 10 µM,PKCzeta,55.8%
same,remaining activity at 10 µM,DYRK3,28.2%
same,remaining activity at 10 µM,MLK1/MAP3K9,4.06%
same,remaining activity at 10 µM,MLK4,0.87%
same,remaining activity at 10 µM,ALK4/ACVR1B,58.3%
same,remaining activity at 10 µM,FGFR1,6.31%
same,remaining activity at 10 µM,DYRK1/DYRK1A,2.33%
same,remaining activity at 10 µM,c-MET,12.4%
same,remaining activity at 10 µM,FGFR3,4.66%
same,remaining activity at 10 µM,SNRK,72.5%
same,remaining activity at 10 µM,PKCmu/PRKD1,30.3%
same,remaining activity at 10 µM,BRSK2,1.66%
same,remaining activity at 10 µM,TAK1,7.2%
same,"viability at 120 h, 10 µM",[1],98%
same,"viability, odu as a percentage of the DMSO control",HaCat cells; 24 h,123% and 93.2% and 107%
same,"viability, odu as a percentage of the DMSO control",HaCat cells; 120 h,88.4% and 84%
same,cytotoxicity,HaCat cells; up to 120 h,little or no cytotoxicity
same,remaining activity at 10 µM,CDK16/cyclin Y (PCTAIRE),76.6%
same,remaining activity at 10 µM,RET,2.1%
same,remaining activity at 10 µM,EPHB1,1.91%
same,remaining activity at 10 µM,CAMK2a,1.36%
same,remaining activity at 10 µM,CDK4/cyclin D1,68.8%
same,remaining activity at 10 µM,MSK1/RPS6KA5,1.53%
same,remaining activity at 10 µM,EPHB4,19.4%
same,remaining activity at 10 µM,SNARK/NUAK2,2.16%
same,remaining activity at 10 µM,MST2/STK3,3.52%
same,remaining activity at 10 µM,FLT3,4.55%
same,remaining activity at 10 µM,STK38/NDR1,8.29%
same,remaining activity at 10 µM,FLT1/VEGFR1,2.92%
same,remaining activity at 10 µM,PKAcg,2.07%
same,remaining activity at 10 µM,PAK6,9.79%
same,remaining activity at 10 µM,TYK2,6.35%
same,remaining activity at 10 µM,LCK,3.41%
same,remaining activity at 10 µM,MSSK1/STK23,67.7%

# — article PMC9569420 (Communications Biology, 2022)
